According to patent publication US9561231B2 (AbbVie Inc., priority 2012, dated 2017):
Like-named read-outs stand apart in the source and are kept apart here.

How the values were obtained:
[1] = molecular target: T1, second (BD2: amino acids E352-E168) bromodomain of BRD4 (Homo sapiens, UniProt O60885); assay: TR-FRET bromodomain binding assay, BRD4 BD2; settings: Ki calculated from IC50, probe Kd and probe concentration, read-out: TR-FRET Binding Ki: BRD4 (BDII_E352-M457)
T1 construct: protocol
Method in brief: (§1)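 Displacement of Alexa647-labeled BET-inhibitor probe from His-tagged bromodomain, TR-FRET read-out; buffer 20 mM Na phosphate pH 6.0, 50 mM NaCl, 0.01% Triton X-100. IC50 by 4PL fit; Ki calculated from IC50, probe Kd and probe concentration.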

[2] = test system: breast cancer cell line MX-1; assay: MX-1 cell line proliferation assay (3-day); format: cell-based; settings: Homo sapiens, MX1, MX-1 cells, Cell Titer Glo, read-out: Cellular proliferation: EC50
Method in brief: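 EC50 derived by sigmoidal fitting of Cell Titer Glo signal relative to DMSO controls. Compound, 3 μM down to 0.0001 μM final in 3-fold steps, was added to adhered MX-1 cells (5000/well, RPMI + 10% FBS) for a 3-day incubation at 37° C.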

[3] = molecular target: T2, first (BD1: amino acids K57-E168) bromodomain of BRD4 (Homo sapiens, UniProt O60885); assay: TR-FRET bromodomain binding assay, BRD4 BD1; settings: Ki calculated from IC50, probe Kd and probe concentration, read-out: TR-FRET Binding Ki: BRD4 (BDI_K57-E168)
T2 construct: His-tagged first (BD1: amino acids K57-E168)
Method in brief: as §1

[4] = TR-FRET assay protocol (A-G, compound concentration range)
[5] = TR-FRET assay protocol (D, E or G) per compound

| Ki [1, 4] [nM] | EC50 ([2]; 72 h incubation) [nM] | Ki [3, 4] [nM] | Ki [1, 5] [nM] | EC50 ([2]; 72 hours with compound) [nM] | Ki [3, 5] [nM] | SMILES |
| --- | --- | --- | --- | --- | --- | --- |
| 1.67 | 165 | 21.4 |  |  |  | CCS(=O)(=O)Nc1ccc(Oc2ccc(OC3COC3)cc2F)c(-c2cn(C)c(=O)cc2OC2COC2)c1 [Example 336, N-{4-[2-fluoro-4-(oxetan-3-yloxy)phenoxy]-3-[1-methyl-4-(oxetan-3-yloxy)-6-oxo-1,6-dihydropyridin-3-yl]phenyl}ethanesulfonamide] |
| 251 | 384 | 225 |  |  |  | CCOc1cc(=O)n(C)cc1-c1cc(S(C)(=O)=O)ccc1NCC1CC1 [Example 340, 5-{2-[(cyclopropylmethyl)amino]-5-(methylsulfonyl)phenyl}-4-ethoxy-1-methylpyridin-2(1H)-one] |
| 0.609 | 91.2 | 2.21 |  |  |  | CCS(=O)(=O)Nc1ccc(Oc2ccc(F)cc2F)c(-c2cn(C)c(=O)cc2-c2cnn(C)c2)c1 [Example 342, N-{4-(2,4-difluorophenoxy)-3-[1-methyl-4-(1-methyl-1H-pyrazol-4-yl)-6-oxo-1,6-dihydropyridin-3-yl]phenyl}ethanesulfonamide] |
| 12.7 | 504 | 69.8 |  |  |  | CCOc1cc(=O)n(C)cc1-c1cc(NS(=O)(=O)c2cccc3ccccc23)ccc1Oc1ccc(F)cc1F [Example 343, N-[4-(2,4-difluorophenoxy)-3-(4-ethoxy-1-methyl-6-oxo-1,6-dihydropyridin-3-yl)phenyl]naphthalene-1-sulfonamide] |
| 5.07 | 271 | 23.1 |  |  |  | CCOc1cc(=O)n(C)cc1-c1cc(NS(=O)(=O)c2ccccc2)ccc1Oc1ccc(F)cc1F [Example 344, N-[4-(2,4-difluorophenoxy)-3-(4-ethoxy-1-methyl-6-oxo-1,6-dihydropyridin-3-yl)phenyl]benzenesulfonamide] |
| 5.44 | 126 | 10.2 |  |  |  | CCS(=O)(=O)Nc1ccc(Oc2ccc(F)cc2F)c(-c2cn(C)c(=O)cc2-c2cnn(CCN3CCOCC3)c2)c1 [Example 345, N-[4-(2,4-difluorophenoxy)-3-(1-methyl-4-{1-[2-(morpholin-4-yl)ethyl]-1H-pyrazol-4-yl}-6-oxo-1,6-dihydropyridin-3-yl)phenyl]ethanesulfonamide] |
| 53.4 | 1560 | 169 |  |  |  | CCOc1cc(=O)n(C)cc1-c1cc(NS(=O)(=O)c2ccc(C(C)C)cc2)ccc1Oc1ccc(F)cc1F [Example 347, N-[4-(2,4-difluorophenoxy)-3-(4-ethoxy-1-methyl-6-oxo-1,6-dihydropyridin-3-yl)phenyl]-4-(propan-2-yl)benzenesulfonamide] |
| 8.71 | 151 | 43.8 |  |  |  | CCCS(=O)(=O)Nc1ccc(Oc2ccc(F)cc2F)c(-c2cn(C)c(=O)cc2OCC)c1 [Example 349, N-[4-(2,4-difluorophenoxy)-3-(4-ethoxy-1-methyl-6-oxo-1,6-dihydropyridin-3-yl)phenyl]propane-1-sulfonamide] |
| 29.8 | 360 | 25.7 |  |  |  | CCOc1cc(=O)n(C)cc1-c1cc(NS(=O)(=O)Cc2ccccc2F)ccc1Oc1ccc(F)cc1F [Example 351, N-[4-(2,4-difluorophenoxy)-3-(4-ethoxy-1-methyl-6-oxo-1,6-dihydropyridin-3-yl)phenyl]-1-(2-fluorophenyl)methanesulfonamide] |
| 77.9 | 256 | 26.8 |  |  |  | CCS(=O)(=O)Nc1ccc(Oc2ccc(F)cc2F)c(-c2cc(F)c(=O)n(C)c2)c1 [Example 352, N-[4-(2,4-difluorophenoxy)-3-(5-fluoro-1-methyl-6-oxo-1,6-dihydropyridin-3-yl)phenyl]ethanesulfonamide] |
| 2.3 | 56.9 | 4.41 |  |  |  | CCS(=O)(=O)Nc1ccc(Oc2ccc(F)cc2F)c(-c2cn(C)c(=O)cc2NCC2CC2)c1 [Example 353, N-[3-{4-[(cyclopropylmethyl)amino]-1-methyl-6-oxo-1,6-dihydropyridin-3-yl}-4-(2,4-difluorophenoxy)phenyl]ethanesulfonamide] |
| 5.1 | 112 | 12.6 |  |  |  | CCCc1cc(=O)n(C)cc1-c1cc(NS(=O)(=O)CC)ccc1Oc1ccc(F)cc1F [Example 359, N-[4-(2,4-difluorophenoxy)-3-(1-methyl-6-oxo-4-propyl-1,6-dihydropyridin-3-yl)phenyl]ethanesulfonamide] |
| 2.76 | 33.6 | 5.81 |  |  |  | CCS(=O)(=O)Nc1ccc(Oc2ccc(F)cc2F)c(-c2cn(C)c(=O)cc2NC2CC2)c1 [Example 362, N-{3-[4-(cyclopropylamino)-1-methyl-6-oxo-1,6-dihydropyridin-3-yl]-4-(2,4-difluorophenoxy)phenyl}ethanesulfonamide] |
| 153 | 878 | 84.4 |  |  |  | CC(C)S(=O)(=O)c1ccc(Oc2ccc(F)cc2F)c(-c2ccc(=O)n(C)c2)c1 [Example 364, 5-[2-(2,4-difluorophenoxy)-5-(propan-2-ylsulfonyl)phenyl]-1-methylpyridin-2(1H)-one] |
| 39.5 | 135 | 52.7 |  |  |  | CCOc1cc(=O)n(C)cc1-c1cc(CS(C)(=O)=O)ccc1Oc1ccc(F)cc1F [Example 370, 5-{2-(2,4-difluorophenoxy)-5-[(methylsulfonyl)methyl]phenyl}-4-ethoxy-1-methylpyridin-2(1H)-one] |
|  |  |  | 167 | 859 | 118 | CCOc1cc(=O)n(C)cc1-c1cc(S(=O)(=O)CC)ccc1NC1CC1 [Example 373, 5-[2-(cyclopropylamino)-5-(ethylsulfonyl)phenyl]-4-ethoxy-1-methylpyridin-2(1H)-one] |
|  |  |  | 17.1 | 708 | 123 | CCS(=O)(=O)Nc1ccc(Oc2ccc(F)cc2F)c(-c2cn(C)c(=O)cc2OCC(C)(C)O)c1 [Example 376, N-{4-(2,4-difluorophenoxy)-3-[4-(2-hydroxy-2-methylpropoxy)-1-methyl-6-oxo-1,6-dihydropyridin-3-yl]phenyl}ethanesulfonamide] |
|  |  |  | 6.41 | 92.4 | 53.4 | CCOc1cc(=O)n(C)cc1-c1cc(S(=O)(=O)CC)ccc1Oc1ccc(OC(F)(F)F)cc1 [Example 377, 4-ethoxy-5-{5-(ethylsulfonyl)-2-[4-(trifluoromethoxy)phenoxy]phenyl}-1-methylpyridin-2(1H)-one] |
|  |  |  | 31.7 | 103 | 113 | CCOc1cc(=O)n(C)cc1-c1cc(S(=O)(=O)CC)ccc1Oc1ccc(C#N)cc1 [Example 378, 4-[2-(4-ethoxy-1-methyl-6-oxo-1,6-dihydropyridin-3-yl)-4-(ethylsulfonyl)phenoxy]benzonitrile] |
|  |  |  | 16.1 | 126 | 62.1 | CCOc1cc(=O)n(C)cc1-c1cc(CS(=O)(=O)CC)ccc1Oc1ccc(F)cc1F [Example 379, 5-{2-(2,4-difluorophenoxy)-5-[(ethylsulfonyl)methyl]phenyl}-4-ethoxy-1-methylpyridin-2(1H)-one] |
|  |  |  | 3.88 | 38.4 | 14.3 | CCOc1cc(=O)n(C)cc1-c1cc(C(C)(C)S(=O)(=O)CC)ccc1Oc1ccc(F)cc1F [Example 380, 5-{2-(2,4-difluorophenoxy)-5-[2-(ethylsulfonyl)propan-2-yl]phenyl}-4-ethoxy-1-methylpyridin-2(1H)-one] |
|  |  |  | 56.1 | 115 | 33.4 | CCOc1cc(=O)n(C)cc1-c1cc(NS(=O)(=O)CC)ccc1OCC1CC1 [Example 381, N-[4-(cyclopropylmethoxy)-3-(4-ethoxy-1-methyl-6-oxo-1,6-dihydropyridin-3-yl)phenyl]ethanesulfonamide] |
|  |  |  | 82.8 | 83.6 | 43.2 | CCOc1cc(=O)n(C)cc1-c1cc(NS(=O)(=O)CC)ccc1OCCC1CC1 [Example 383, N-[4-(2-cyclopropylethoxy)-3-(4-ethoxy-1-methyl-6-oxo-1,6-dihydropyridin-3-yl)phenyl]ethanesulfonamide] |
|  |  |  | 146 | 237 | 65.3 | CCOc1cc(=O)n(C)cc1-c1cc(NS(=O)(=O)CC)ccc1OC1CCC1 [Example 384, N-[4-(cyclobutyloxy)-3-(4-ethoxy-1-methyl-6-oxo-1,6-dihydropyridin-3-yl)phenyl]ethanesulfonamide] |
|  |  |  | 140 | 254 | 55.3 | CCOc1cc(=O)n(C)cc1-c1cc(NS(=O)(=O)CC)ccc1OC1CCC(F)(F)CC1 [Example 385, N-{4-[(4,4-difluorocyclohexyl)oxy]-3-(4-ethoxy-1-methyl-6-oxo-1,6-dihydropyridin-3-yl)phenyl}ethanesulfonamide] |

| SMILES | Ki [1, 4] [nM] | EC50 ([2]; 72 h incubation) [nM] | Ki [3, 4] [nM] | Ki [1, 5] [nM] | EC50 ([2]; 72 hours with compound) [nM] | Ki [3, 5] [nM] |
| --- | --- | --- | --- | --- | --- | --- |
| CCS(=O)(=O)Nc1ccc(Oc2ccc(F)cc2F)c(-c2cn(C)c(=O)cc2OCCC(C)(C)O)c1 [Example 372, N-{4-(2,4-difluorophenoxy)-3-[4-(3-hydroxy-3-methylbutoxy)-1-methyl-6-oxo-1,6-dihydropyridin-3-yl]phenyl}ethanesulfonamide] | 14.3 | 205 | 33.5 |  |  |  |
